Laboratory results published in patent US20080207885A1, “Method for site-specific labeling of RNA using a deoxyribozyme” (priority 2007, published 2008).
“And” between values parts separate entries of the source, which are not always exact repeats. Identical values can stand only once.

Tests used:
[1] = tested on: 10DM24 deoxyribozyme; test: 10DM24-catalyzed ligation of small-molecule NTP substrate to branch-site adenosine of RNA substrate L with cofactor RΔ; format: biochemical; details: for krel = kobs,NTP*/kobs,NTP: relative to GTP
Experimental: (§1) General Description of Kinetic Assays. All kinetic assays with the 10DM24 deoxyribozyme and its variants were performed according to established methods (Flynn-Charlebois, et al. (2003) supra; Wang and Silverman (2003) supra). The 5′-^32P-labeled RNA substrate (L for “left-hand substrate”) that provides the branch-site adenosine was the limiting reagent relative to 10DM24 (E) and the truncated cofactor RNA (RΔ; R originally derived from “right-hand substrate”). The ratio L:E:RΔ was 1:10:30, with 0.25 μM 10DM24. The cofactor RΔ was 5′-phosphorylated unless otherwise stated. The RNA substrate L, deoxyribozyme 10DM24 and cofactor RΔ were annealed in 5 mM HEPES, pH 7.5, 15 mM NaCl, 0.1 mM EDTA by heating at 95° C. for 3 minutes and cooling on ice for 5 minutes. The ligation reactions were performed with the appropriate concentration of NTP substrate (0.05-50 mM) at a final buffer concentration of 100 mM CHES, pH 9.0, 150 mM NaCl, 2 mM KCl, and 40-400 mM MgCl2 at 37° C. for up to 5 hours. The combination of 1 mM NTP and 40 mM MgCl2 was defined as “standard incubation conditions”; 10 mM NTP and 150 mM MgCl2 was defined as “enhanced incubation conditions”. At appropriate timepoints, aliquots were removed from the sample, quenched into stop solution (80% formamide, 1× TB [89 mM each Tris and boric acid, pH 8.3], and 50 mM EDTA containing 0.025% bromophenol blue and xylene cyanol) and stored at −20° C. prior to analysis. Samples were separated by 20% denaturing PAGE at 30 W for 115 minutes and imaged with a PHOSPHORIMAGER. The resulting data were fit to the equation yield=Y·(1−e^−kt), where k=kobs and Y=final yield.
Use of Free NTPs as Substrates. It was determined whether 10DM24 could catalyze ligation with free GTP as a substrate (see FIG. 1B), thereby transferring guanosine 5′-monophosphate (GMP) to the branch-site adenosine 2′-hydroxyl group. When RΔ, an oligoribonucleotide cofactor that corresponds to all of the remaining nucleotides of R, was added to 10DM24 along with GTP, ligation was efficient (FIG. 8; 94% yield in 5 hours and kobs 0.034 min^−1 under the standard incubation conditions of 1 mM GTP and 40 mM MgCl2 at pH 9.0, 37° C.). The RNA product with the single added guanosine at the branch-site adenosine was PAGE-purified and the identity confirmed by partial alkaline hydrolysis (50 mM NaHCO3 at 95° C. for 5 minutes) and MALDI mass spectrometry (m/z calcd. 5433, found 5437±5).

[2] = tested on: 10DM24-C44T mutant deoxyribozyme; test: Ligation of NTP substrate with 10DM24 variant in which the terminal P4 nucleotide is changed C→T, cofactor RΔ; format: biochemical; details: for krel = kobs,NTP*/kobs,NTP: relative to ATP
Experimental: as §1
Focus was then placed on the purine NTPs (GTP, ATP) and their derivatives. When 1 mM ATP was provided as a small molecule substrate in place of GTP using the original 10DM24 sequence and RΔ, no reaction was observed (<1% in 5 hours). […] Furthermore, the kobs increased sixteen-fold to 0.013 min^−1 under enhanced conditions with 10 mM ATP (82% yield in 3 hours).

[3] = tested on: 10DM24 variant; test: Ligation of ATP as substrate and cofactor with RΔΔ, P4 nucleotides 43 and 44 changed CC→TT; format: biochemical; details: 20 mM ATP, 150 mM MgCl2, RΔΔ
[4] = tested on: 10DM24 deoxyribozyme; test: Multiple-turnover ligation of GTP; format: biochemical
Excerpt: In contrast, upon 10DM24-catalyzed reaction of the oligoribonucleotide 2′-hydroxyl group with the NTP substrate, the binding affinity of the RNA for the deoxyribozyme was not expected to increase substantially. Thus, the capability of the engineered 10DM24 deoxyribozyme to catalyze the multiple-turnover ligation of GTP was examined. The 10DM24 deoxyribozyme was the limiting reagent, with the RNA substrate that provides the branch-site adenosine (L) in 10-fold excess over the deoxyribozyme (L:E:RΔ=10:1:3). The reaction was performed under the standard incubation conditions described herein using 1 mM GTP and 40 mM MgCl2 at 37° C. After 5 hours, the product yield was 50%, corresponding to 5 turnovers. Accordingly, with GTP as substrate, multiple-turnover behavior was shown using an RNA ligase deoxyribozyme.

[5] = tested on: 10DM24 deoxyribozyme; test: Ligation of GTP or pppGpG in presence of shorter cofactor RΔΔ; format: biochemical
Experimental: It was subsequently shown that a binding site for an NTP cofactor can be located adjacent to the substrate binding site. This was achieved by removing an additional nucleotide from the RΔ cofactor, forming the shorter RΔΔ cofactor which required two added nucleotides to reconstitute the complete P4 region (FIG. 10). The 10DM24-catalyzed ligation reaction of GTP in the presence of the two-nucleotide short cofactor RΔΔ was performed with the 5′-^32P-labeled RNA substrate (L) that provides the branch-site adenosine as the limiting reagent. For kinetic assays, the ratio of L:E:RΔΔ was 1:10:30 with 0.25 μM deoxyribozyme (E). For isolation of the reaction products, the ratio L:E:RΔΔ was 1:2:3 with 1.5 μM deoxyribozyme. The reaction was performed under the enhanced incubation conditions with 20 mM GTP and 150 mM MgCl2 in 100 mM CHES, pH 9.0, 150 mM NaCl, and 2 mM KCl at 37° C. for up to 7 hours. […] Both products were isolated and shown by partial alkaline hydrolysis to be branched with the connectivities A-G and A-GG (where A is the branch-site adenosine).
It was contemplated that the new A-GG product was formed by initial templated but otherwise uncatalyzed synthesis of a GG dinucleotide (i.e., pppGpG) from two GTP molecules, followed by 10DM24-catalyzed branch formation using this dinucleotide. […] The reaction was performed under the enhanced incubation conditions of 20 mM GTP and 150 mM MgCl2. […] The pppGpG dinucleotide was synthesized independently using T7 RNA polymerase (Huang, et al. (1998) supra) and led solely to the A-GG product. Although the pppGpG substrate had Kd,app of >1 mM with RΔΔ, similar to Kd,app for GTP with RΔ, the ligation reaction with pppGpG and RΔΔ had kobs six-fold higher than for the analogous reaction with GTP and RΔ (Table 8).
(§2) Similar experiments were performed using the mutant 10DM24 deoxyribozyme that has CTTT rather than CCTT in the P4 region (FIG. 11). For the DNA-catalyzed ligation of pppGpG, the 5′-^32P-labeled RNA with the branch-site adenosine (L) was incubated with the 10DM24 deoxyribozyme (E) and the cofactor RΔΔ in the ratio of L:E:RΔΔ=1:10:30 in the presence of 1 mM pppGpG and 40 mM MgCl2 in 100 mM CHES pH 9.0, 150 mM NaCl, and 2 mM KCl at 37° C. The analysis of the ligation reaction was performed as described herein. […] This is consistent with the model that pppGpG and the first two nucleotides of RΔΔ together reconstitute the P4 helix. When the ligation reaction with pppGpG was tested in the presence of RΔ instead of RΔΔ, the ligation product A-GG was formed, but with a 10-fold decrease in kobs (squares in FIG. 11). Because RΔ provides an extraneous G nucleotide when combined with pppGpG (see legend of FIG. 11), some disruption in activity is perhaps anticipated. […] This is consistent with the observation that GTP was also not a substrate for the 10DM24-C44T mutant deoxyribozyme.
The ligation reaction of pppGpG was also performed using a variety of pppGpG concentrations with the parent 10DM24 deoxyribozyme in the presence of RΔΔ and 40 mM MgCl2. In FIG. 12, the kobs values are plotted versus [pppGpG] and fit to kobs=kmax·[pppGpG]/(Kd,app+[pppGpG]). The Kd,app for pppGpG was >1 mM.

[6] = biological target: glmS riboswitch; details: read-out: Kd,app; cited from earlier work
[7] = tested on: mutant 10DM24 deoxyribozyme that has CTTT rather than CCTT in the P4 region; test: Ligation of pppGpG, second deoxyribozyme nucleotide in P4 mutated C→T; format: biochemical; details: 1 mM pppGpG, RΔΔ, 40 mM MgCl2
Experimental: as §2

[8] = tested on: 10DM24-C44T mutant deoxyribozyme; test: Ligation of pppGpG, first DNA nucleotide in P4 (nucleotide 44) changed C→T; format: biochemical; details: 1 mM pppGpG, RΔΔ, 40 mM MgCl2
Experimental: as §2

[9] = enhanced incubation conditions, 3 h

SMILES: Nc1ncnc2c1ncn2[C@@H]1O[C@H](COP(=O)(O)OP(=O)(O)OP(=O)(O)O)[C@@H](O)[C@H]1O [ATP]
- ligation yield %, 5 h ([1]; standard incubation conditions): < 1%
- kobs,enh/kobs,std ([2]; ATP series): 16
- ligation yield %, 3 h [2, 9]: 82%
- kobs ([2]; enhanced incubation conditions: 10 mM NTP, 150 mM MgCl2, pH 9.0, 37° C.): 0.013 min⁻¹
- krel = kobs,NTP*/kobs,NTP ([2]; enhanced incubation conditions): (1)
- ligation yield %, 5 h ([2]; standard incubation conditions): 33%
- kobs ([2]; standard incubation conditions: 1 mM NTP, 40 mM MgCl2, pH 9.0, 37° C., RΔ, ATP series): 0.0008 min⁻¹
- krel = kobs,NTP*/kobs,NTP ([2]; standard incubation conditions): (1)
- ligation product formed [3]: a small amount of the ATP ligation product

SMILES: Nc1nc2c(ncn2[C@@H]2O[C@H](COP(=O)(O)OP(=O)(O)OP(=O)(O)O)[C@@H](O)[C@H]2O)c(=O)[nH]1 [GTP, guanosine 5′-triphosphate]
- kobs,enh/kobs,std ([1]; GTP series): 8
- ligation yield %, 3 h [1, 9]: 94%
- kobs ([1]; enhanced incubation conditions: 10 mM NTP, 150 mM MgCl2, 100 mM CHES pH 9.0, 37° C.): 0.26 min⁻¹ and 0.262 min⁻¹
- krel = kobs,NTP*/kobs,NTP ([1]; enhanced incubation conditions): (1)
- Kd ([1]; from plot of kobs versus [GTP], RΔ, read-out: Kd,app): > 1000 µM
- ligation yield %, 5 h ([1]; standard incubation conditions): 94%
- kobs ([1]; standard incubation conditions: 1 mM NTP, 40 mM MgCl2, 100 mM CHES pH 9.0, 150 mM NaCl, 2 mM KCl, 37° C., RΔ): 0.034 min⁻¹
- krel = kobs,NTP*/kobs,NTP ([1]; standard incubation conditions): (1)
- ligation yield %, 5 h ([2]; standard incubation conditions): < 1%
- product yield ([4]; L:E:RΔ=10:1:3, 1 mM GTP, 40 mM MgCl2, 37° C., 5 hours): 50%
- turnovers ([4]; after 5 hours, L in 10-fold excess over deoxyribozyme): 5
- kobs ([5]; 20 mM GTP + RΔΔ, 150 mM Mg2+): 0.0008 min⁻¹
- reaction products formed ([5]; RΔΔ cofactor, 20 mM NTP and 150 mM MgCl2, pH 9.0, 37° C.): two reaction products

SMILES: N[C@H]1C(O)O[C@H](COP(=O)(O)O)[C@@H](O)[C@@H]1O (some centres unmarked) [glucosamine 6-phosphate]
- Kd [6]: 200 µM

SMILES: Nc1nc2c(ncn2[C@@H]2O[C@H](COP(=O)(O)O[C@H]3[C@@H](O)[C@H](n4cnc5c(=O)[nH]c(N)nc54)O[C@@H]3COP(=O)(O)OP(=O)(O)OP(=O)(O)O)[C@@H](O)[C@H]2O)c(=O)[nH]1 [pppGpG]
- kobs ([5]; 1 mM pppGpG + RΔΔ, 40 mM Mg2+): 0.19 min⁻¹
- product formation ([5]; 1 mM pppGpG, 40 mM MgCl2, in the absence of RΔΔ): no product formation was observed
- decrease in kobs ([5]; in the presence of RΔ instead of RΔΔ): 10 fold
- Kd ([5]; with RΔΔ, 40 mM Mg2+, pH 9.0, 37° C., read-out: Kd,app): > 1000 µM
- decrease in kobs [7]: 130 fold
- product formation [8]: No product formation was observed
